Reference: patent publication US9546201B2, “MUC-1 cytoplasmic domain peptides as inhibitors of cancer” (DANA-FARBER CANCER INSTITUTE, INC., priority 2008, dated 2017)
Entries after “also recorded” stand apart in the source; their conditions may differ. Where a SMILES comes first, the peptide text is derived from it. [ ]: non-standard residue; d: D form.

Columns and labels:
[1] = system: MCF-10A non-transformed mammary epithelial cell line; assay: Cell cycle distribution and viable cell number, MCF-10A; format: cell-based, human; conditions: 5 μM
Method: (§1) FIGS. 4A-E. Selectivity of MUC1/CQC for MUC1 expressing breast cancer cells. (FIG. 4A) ZR-75-1 cells were stably infected with an empty lentivirus (vector) or one expressing a MUC1 siRNA. Lysates for the infected cells were immunoblotted with the indicated antibodies. (FIG. 4B) ZR-75-1/vector cells were left untreated (diamonds), and ZR-75-1/vector (squares) and ZR-75-1/MUC1siRNA (triangles) cells were treated with 5 μM MUC1/CQC peptide for the indicated times. Viable cell number was determined by trypan blue exclusion. (FIG. 4C) 293 cells were left untreated (diamonds), and treated with 5 μM MUC1/CQC (squares) or MUC1/AQA (triangles) for the indicated times. Viable cell number was determined by trypan blue exclusion. (FIG. 4D) MCF-10A cells were left untreated (left panel), and treated with 5 μM MUC1/CQC (middle panel) or MUC1/AQA (right panel). At 3 d, cells were analyzed for cell cycle distribution. […] Viable cell number was determined by trypan blue exclusion.
(§2) Human breast cancer ZR-75-1, ZR-75-1/vector, ZR-75-1/MUC1siRNA (Ren et al., 2004) cell lines were grown in RPMI1640 medium supplemented with 10% heat-inactivated fetal bovine serum (HI-FBS), 100 U/ml penicillin, and 100 μg/ml streptomycin (Invitrogen) in a humidified incubator at 37° C. and 5% CO2. […] Viability was determined by trypan blue exclusion. […]

[2] = Body weight of nude mice under peptide administration; format: in vivo
[3] = system: ZR-75-1/vector cells; assay: Viable cell number by trypan blue exclusion, ZR-75-1/vector; format: cell-based, human; conditions: 5 μM
Method: as §1, §2

[4] = system: multiple carcinoma cell lines; assay: Inventors' recent studies of MUC1 C-terminal peptides on carcinoma cell lines; format: cell-based; conditions: L-amino acid peptide
Description: However, these MUC1-C-terminal peptides consists of L-amino acids. […] Consequently, they have generated an all-dextro form of the above described shorter MUC1 C-terminal peptide, in which the L-amino acids were changed to D-amino acids (GO-203). Moreover, to determine the minimum amino acid residues from the MUC1-C-terminal region that are required to retain the cell killing activity, they have also generated many different versions of GO-203 as described in FIG. 8.

[5] = target: T1, MUC1-C in MCF-7 cells (Homo sapiens, UniProt P15941); assay: Immunoblot of nuclear lysates, MCF-7; format: cell-based; conditions: MCF-7 nuclear lysates, 5 μM peptide for 3 d
T1 construct: translated as a single polypeptide and cleaved into N- and C-terminal subunits in the endoplasmic reticulum; endogenous in cells; host or cells: ZR-75-1 and MCF-7 human breast cancer cells
T1 sequence (P15941 1098-1255 limits assumed): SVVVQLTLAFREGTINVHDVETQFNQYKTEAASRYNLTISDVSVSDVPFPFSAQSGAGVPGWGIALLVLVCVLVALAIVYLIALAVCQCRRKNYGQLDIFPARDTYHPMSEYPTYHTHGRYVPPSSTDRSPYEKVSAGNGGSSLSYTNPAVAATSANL
Method: FIGS. 2A-C. MUC1/CQC peptide blocks nuclear localization of MUC1-C. (FIG. 2A) ZR-75-1 cells were incubated with 5 μM FITC-labeled MUC1/CQC peptide for the indicated times and then analyzed by flow cytometry. The mean fluorescence index (MFI) is included in each of the panels. (FIGS. 2B-C) ZR-75-1 (FIG. 2B) and MCF-7 (FIG. 2C) cells were incubated in the presence of 5 μM MUC1/CQC or MUC1/AQA peptide for 3 d. Whole cell lysates (WCL) (left panels) and nuclear lysates (right panels) were immunoblotted with the indicated antibodies.
Whole cell and nuclear lysates were prepared as described (Leng et al., 2007). Soluble proteins were subjected to immunoprecipitation with anti-Flag (Sigma, St. Louis, Mo.). Immunoprecitates and soluble proteins were analyzed by immunoblotting with anti-His (Cell Signaling Technology, Danvers, Mass.), anti-GFP (Millipore, Danvers, Mass.), anti-Flag, anti-MUC1-C (Abl; NeoMarkers, Fremont, Calif.), anti-lamin B (EMD, La Jolla, Calif.) or anti-β-actin (Sigma). Reactivity was detected with horseradish peroxidase-conjugated second antibodies and chemiluminescence.
Human ZR-75-1 and MCF-7 breast cancer cells overexpress endogenous MUC1, and thus represent potential models for evaluating effects of the MUC1/CQC peptide (Ramasamy et al., 2007). To assess uptake, the ZR-75-1 cells were incubated with 5 μM FITC-MUC1/CQC peptide (FIG. 2A). […]

Structure (SMILES): CC[C@H](C)[C@H](NC(=O)[C@H](CC(=O)O)NC(=O)[C@H](CC(C)C)NC(=O)[C@H](CCC(N)=O)NC(=O)CNC(=O)[C@H](Cc1ccc(O)cc1)NC(=O)[C@H](CC(N)=O)NC(=O)[C@H](CCCCN)NC(=O)[C@H](CCCNC(=N)N)NC(=O)[C@H](CCCNC(=N)N)NC(=O)[C@H](CS)NC(=O)[C@H](CCC(N)=O)NC(=O)[C@H](CS)NC(=O)[C@@H](CCCNC(=N)N)NC(=O)[C@@H](CCCNC(=N)N)NC(=O)[C@@H](CCCNC(=N)N)NC(=O)[C@@H](CCCNC(=N)N)NC(=O)[C@@H](CCCNC(=N)N)NC(=O)[C@@H](CCCNC(=N)N)NC(=O)[C@@H](CCCNC(=N)N)NC(=O)[C@@H](CCCNC(=N)N)NC(=O)[C@H](N)CCCNC(=N)N)C(=O)N[C@@H](Cc1ccccc1)C(=O)N1CCC[C@H]1C(=O)O [MUC1/CQC] (H-[dR][dR][dR][dR][dR][dR][dR][dR][dR]CQCRRKNYGQLDIFP-OH; N-terminus and C-terminus assumed)
- effect on growth [1]: no effect; also recorded: little effect
- effect on cell cycle distribution ([1]; 3 d): no effect
- effect on weight of the individual mice ([2]; 50 mg/kg IP once each day over 11 d, female nude mice): no apparent effect
- effect on bodyweight after stopping administration ([2]; next 28 d after 50 mg/kg IP daily for 11 d, data not shown): no subsequent effect on bodyweight
- effect on growth (viable cell number) [3]: growth arrest and death
- growth of carcinoma cell lines [4]: active in inhibiting growth of multiple carcinoma cell lines
- nuclear MUC1-C levels [5]: down-regulation of nuclear MUC1-C levels
